The structures appear in SMILES notation. ≈ marks a conversion by molar mass, not a printed value. A value given as a limit tells only on which side of the number the result lay.

As usually defined, the solubility is the concentration that dissolves in the medium under given conditions.

The nature of the series: Aqueous solubility in the sodium acetate buffer of the fibrillization assay. The series is classed as physicochemical.
Take `CCOC(=O)c1nn(-c2ccc(F)cc2)c(=O)c2c(N)scc12` [Compound 26, Ethyl 5-amino-3-(4-fluorophenyl)-4-oxo-3,4-dihydrothieno[3,4-d]pyridazine-1-carboxylate]: the solubility is greater than 200 µM.
For the molecule `CCOC(=O)c1nn(-c2ccccc2Cl)c(=O)c2c(N)scc12` [Compound 27, Ethyl 5-amino-3-(2-chlorophenyl)-4-oxo-3,4-dihydrothieno-[3,4-d]pyridazine-1-carboxylate], the concentration in solution (solubility) came to 12.8 µM (≈ 4.48 µg/mL).
`CCOC(=O)c1nn(-c2cccc(Cl)c2)c(=O)c2c(N)scc12` [Compound 28, Ethyl 5-amino-3-(3-chlorophenyl)-4-oxo-3,4-dihydrothieno-[3,4-d]pyridazine-1-carboxylate] came in with a solubility of 32 µM (≈ 11.2 µg/mL).
In the case of `CCOC(=O)c1nn(-c2ccc(C(F)(F)F)cc2)c(=O)c2c(N)scc12` [Compound 30, Ethyl 5-amino-4-oxo-3-(4-(trifluoromethyl)phenyl)-3,4-dihydrothieno[3,4-d]pyridazine-1-carboxylate], the solubility was found to be 32 µM (≈ 12.3 µg/mL).
For the molecule `CCOC(=O)c1nn(-c2ccc(OC(F)(F)F)cc2)c(=O)c2c(N)scc12` [Compound 31, Ethyl 5-amino-4-oxo-3-(4-(trifluoromethoxy)phenyl)-3,4-dihydrothieno[3,4-d]pyridazine-1-carboxylate], the concentration in solution (solubility) was 12.8 µM (≈ 5.11 µg/mL).
With `CCOC(=O)c1nn(-c2ccc(O)cc2)c(=O)c2c(N)scc12` [Compound 32, Ethyl 5-amino-3-(4-hydroxyphenyl)-4-oxo-3,4-dihydrothieno[3,4-d]pyridazine-1-carboxylate], the solubility stood at 12.8 µM (≈ 4.24 µg/mL).
Consider `CCOC(=O)c1nn(-c2ccc(C(C)C)cc2)c(=O)c2c(N)scc12` [Compound 33, Ethyl 5-amino-3-(4-isopropylphenyl)-4-oxo-3,4-dihydrothieno[3,4-d]pyridazine-1-carboxylate], for which the solubility turned out to be 32 µM (≈ 11.4 µg/mL).
As to `Nc1scc2c(C(=O)O)nn(-c3ccc(F)cc3)c(=O)c12` [Compound 34, 5-Amino-3-(4-fluorophenyl)-4-oxo-3,4-dihydrothieno[3,4-d]pyridazine-1-carboxylic acid], the solubility was greater than 200 µM.
On to `Nc1scc2c(C(=O)O)nn(-c3ccccc3Cl)c(=O)c12` [Compound 35, 5-Amino-3-(2-chlorophenyl)-4-oxo-3,4-dihydrothieno[3,4-d]pyridazine-1-carboxylic acid], for which the solubility is greater than 200 µM.
For the molecule `Nc1scc2c(C(=O)O)nn(-c3cccc(Cl)c3)c(=O)c12` [Compound 36, 5-Amino-3-(3-chlorophenyl)-4-oxo-3,4-dihydrothieno[3,4-d]pyridazine-1-carboxylic acid], the concentration in solution (solubility) came to 32 µM (≈ 10.3 µg/mL).
As to `Nc1scc2c(C(=O)O)nn(-c3ccc(C(F)(F)F)cc3)c(=O)c12` [Compound 38, 5-Amino-4-oxo-3-(4-(trifluoromethyl)phenyl)-3,4-dihydrothieno[3,4-d]pyridazine-1-carboxylic acid], the solubility was greater than 200 µM.
Molecule `Nc1scc2c(C(=O)O)nn(-c3ccc(OC(F)(F)F)cc3)c(=O)c12` [Compound 39, 5-Amino-4-oxo-3-(4-(trifluoromethoxy)phenyl)-3,4-dihydrothieno[3,4-d]pyridazine-1-carboxylic acid] showed a solubility greater than 200 µM.
In turn, `Nc1scc2c(C(=O)O)nn(-c3ccc(O)cc3)c(=O)c12` [Compound 40, 5-Amino-3-(4-hydroxyphenyl)-4-oxo-3,4-dihydrothieno[3,4-d]pyridazine-1-carboxylic acid] came in with a solubility greater than 200 µM.
`Nc1scc2c(C(=O)NC3CC3)nn(-c3ccccc3Cl)c(=O)c12` [Compound 45, 5-Amino-3-(2-chlorophenyl)-N-cyclopropyl-4-oxo-3,4-dihydrothieno[3,4-d]pyridazine-1-carboxamide] showed a solubility of 80 µM (≈ 28.9 µg/mL).
As for `CC(C)NC(=O)c1nn(-c2cccc(Cl)c2)c(=O)c2c(N)scc12` [Compound 46, 5-Amino-3-(3-chlorophenyl)-N-isopropyl-4-oxo-3,4-dihydrothieno[3,4-d]pyridazine-1-carboxamide], the concentration in solution (solubility) was 32 µM (≈ 11.6 µg/mL).
On to `Nc1scc2c(C(=O)NC3CC3)nn(-c3ccc(C(F)(F)F)cc3)c(=O)c12` [Compound 47, 5-Amino-N-cyclopropyl-4-oxo-3-(4-(trifluoromethyl)-phenyl)-3,4-dihydrothieno[3,4-d]pyridazine-1-carboxamide], for which the solubility was 80 µM (≈ 31.6 µg/mL).
With `CC(C)NC(=O)c1nn(-c2ccc(OC(F)(F)F)cc2)c(=O)c2c(N)scc12` [Compound 48, 5-Amino-N-isopropyl-4-oxo-3-(4-(trifluoromethoxy)-phenyl)-3,4-dihydrothieno[3,4-d]pyridazine-1-carboxamide], the solubility came out at 80 µM (≈ 33 µg/mL).
Molecule `CC(C)NC(=O)c1nn(-c2ccc(O)cc2)c(=O)c2c(N)scc12` [Compound 49, 5-Amino-3-(4-hydroxyphenyl)-N-isopropyl-4-oxo-3,4-dihydrothieno[3,4-d]pyridazine-1-carboxamide] showed a solubility greater than 200 µM.
`CC(C)c1ccc(-n2nc(C(=O)NC3CC3)c3csc(N)c3c2=O)cc1` [Compound 50, 5-Amino-N-cyclopropyl-3-(4-isopropylphenyl)-4-oxo-3,4-dihydrothieno[3,4-d]pyridazine-1-carboxamide] came in with a solubility of 80 µM (≈ 29.5 µg/mL).
`CCOC(=O)c1c(C(=O)c2ccccc2)csc1N` [Compound 54, Ethyl 2-amino-4-benzoylthiophene-3-carboxylate] came in with a solubility greater than 200 µM.
In the case of `Cc1nn(C(C)C)c(=O)c2c(N)scc12` [Compound 57, 7-Amino-2-isopropyl-4-methylthieno[3,4-d]pyridazin-1(2H)-one], the solubility was determined as 80 µM (≈ 17.9 µg/mL).
`Cc1nn(CC(F)(F)F)c(=O)c2c(N)scc12` [Compound 58, 7-Amino-4-methyl-2-(2,2,2-trifluoroethyl)thieno[3,4-d]pyridazin-1(2H)-one]: the solubility was greater than 200 µM.
As for `Cc1nn(C2CCCCC2)c(=O)c2c(N)scc12` [Compound 59, 7-Amino-2-cyclohexyl-4-methylthieno[3,4-d]pyridazin-1(2H)-one], the solubility is greater than 200 µM.
`Cc1nn(-c2ccccn2)c(=O)c2c(N)scc12` [Compound 60, 7-Amino-4-methyl-2-(pyridin-2-yl)thieno[3,4-d]pyridazin-1(2H)-one] gave a solubility greater than 200 µM.
The value for `Cc1nn(-c2cccnc2)c(=O)c2c(N)scc12` [Compound 61, 7-Amino-4-methyl-2-(pyridin-3-yl)thieno[3,4-d]pyridazin-1(2H)-one] was greater than 200 µM.
For `Cc1nn(-c2ccc(Cl)cc2)c(=O)c2c(N)scc12` [Compound 63, 7-Amino-2-(4-chlorophenyl)-4-methylthieno[3,4-d]pyridazin-1(2H)-one], the solubility turned out to be 80 µM (≈ 23.3 µg/mL).
`Nc1scc2c(-c3ccccc3)nn(CC(F)(F)F)c(=O)c12` [Compound 64, 7-Amino-4-phenyl-2-(2,2,2-trifluoroethyl)thieno[3,4-d]pyridazin-1(2H)-one] displayed a solubility greater than 200 µM.
The value for `CC(C)n1nc(-c2ccccc2)c2csc(N)c2c1=O` [Compound 65, 7-Amino-2-isopropyl-4-phenylthieno[3,4-d]pyridazin-1(2H)-one] was greater than 200 µM; that for `CCOC(=O)c1nn(-c2ccc(Cl)cc2)c(=O)c2c(NC)scc12` [Compound 66, Ethyl 3-(4-chlorophenyl)-5-(methylamino)-4-oxo-3,4-dihydrothieno[3,4-d]pyridazine-1-carboxylate] was 80 µM (≈ 29.1 µg/mL).
